# Experimental data reported in ChEMBL document CHEMBL1135924, “Structure-based design and synthesis of 2-benzylidene-benzofuran-3-ones as flavopiridol mimics” (J Med Chem, 2002).
# Tests used:
# [1] = target: Cyclin-dependent kinase 4 (Homo sapiens, UniProt P11802); test: Inhibition of cyclin D1 activated Cyclin-dependent kinase 4 (CDK4)
# [2] = target: Epidermal growth factor receptor (Homo sapiens) (UniProt P00533); test: Inhibition of Epidermal growth factor receptor at 10 uM
# [3] = target: Cyclin-dependent kinase 2 (Homo sapiens, UniProt P24941); test: Inhibition of cyclin A activated Cyclin-dependent kinase 2 (CDK2)
# HCT-116 = test: Inhibition of HCT116 (transformed colon) cell proliferation; assay type: functional, cell-based; settings: Homo sapiens
# [4] = target: Vascular endothelial growth factor receptor 2 (Homo sapiens) (UniProt P35968); test: Inhibition of Vascular endothelial growth factor receptor 2 (VEGF-KDR) at 10 uM
# [5] = target: T1, Protein kinase C alpha type (Homo sapiens, UniProt P17252); test: Inhibition of Protein kinase C alpha
# [6] = target: Glycogen synthase kinase-3 (Homo sapiens, UniProt P49840+P49841); test: inhibition of Glycogen synthase kinase-3; assay type: protein assay
# [7] = target: T1, Protein kinase C alpha type; test: Inhibition of Protein kinase C alpha at 10 uM
# [8] = target: Cyclin-dependent kinase 1 (Homo sapiens, UniProt P06493); test: Inhibition of cyclin B activated Cyclin-dependent kinase 1 (CDK1)
# Cyclin-dependent kinase 1, sequence (P06493 whole entry): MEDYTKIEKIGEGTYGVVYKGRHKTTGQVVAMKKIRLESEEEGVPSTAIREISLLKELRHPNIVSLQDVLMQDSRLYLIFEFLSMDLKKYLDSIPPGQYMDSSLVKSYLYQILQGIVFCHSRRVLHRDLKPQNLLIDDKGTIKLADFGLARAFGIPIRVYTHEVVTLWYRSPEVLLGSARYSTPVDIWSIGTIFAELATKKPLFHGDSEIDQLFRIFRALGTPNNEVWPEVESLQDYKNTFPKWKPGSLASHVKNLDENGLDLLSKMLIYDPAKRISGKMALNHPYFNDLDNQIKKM
# Vascular endothelial growth factor receptor 2 (Homo sapiens), sequence (P35968 whole entry): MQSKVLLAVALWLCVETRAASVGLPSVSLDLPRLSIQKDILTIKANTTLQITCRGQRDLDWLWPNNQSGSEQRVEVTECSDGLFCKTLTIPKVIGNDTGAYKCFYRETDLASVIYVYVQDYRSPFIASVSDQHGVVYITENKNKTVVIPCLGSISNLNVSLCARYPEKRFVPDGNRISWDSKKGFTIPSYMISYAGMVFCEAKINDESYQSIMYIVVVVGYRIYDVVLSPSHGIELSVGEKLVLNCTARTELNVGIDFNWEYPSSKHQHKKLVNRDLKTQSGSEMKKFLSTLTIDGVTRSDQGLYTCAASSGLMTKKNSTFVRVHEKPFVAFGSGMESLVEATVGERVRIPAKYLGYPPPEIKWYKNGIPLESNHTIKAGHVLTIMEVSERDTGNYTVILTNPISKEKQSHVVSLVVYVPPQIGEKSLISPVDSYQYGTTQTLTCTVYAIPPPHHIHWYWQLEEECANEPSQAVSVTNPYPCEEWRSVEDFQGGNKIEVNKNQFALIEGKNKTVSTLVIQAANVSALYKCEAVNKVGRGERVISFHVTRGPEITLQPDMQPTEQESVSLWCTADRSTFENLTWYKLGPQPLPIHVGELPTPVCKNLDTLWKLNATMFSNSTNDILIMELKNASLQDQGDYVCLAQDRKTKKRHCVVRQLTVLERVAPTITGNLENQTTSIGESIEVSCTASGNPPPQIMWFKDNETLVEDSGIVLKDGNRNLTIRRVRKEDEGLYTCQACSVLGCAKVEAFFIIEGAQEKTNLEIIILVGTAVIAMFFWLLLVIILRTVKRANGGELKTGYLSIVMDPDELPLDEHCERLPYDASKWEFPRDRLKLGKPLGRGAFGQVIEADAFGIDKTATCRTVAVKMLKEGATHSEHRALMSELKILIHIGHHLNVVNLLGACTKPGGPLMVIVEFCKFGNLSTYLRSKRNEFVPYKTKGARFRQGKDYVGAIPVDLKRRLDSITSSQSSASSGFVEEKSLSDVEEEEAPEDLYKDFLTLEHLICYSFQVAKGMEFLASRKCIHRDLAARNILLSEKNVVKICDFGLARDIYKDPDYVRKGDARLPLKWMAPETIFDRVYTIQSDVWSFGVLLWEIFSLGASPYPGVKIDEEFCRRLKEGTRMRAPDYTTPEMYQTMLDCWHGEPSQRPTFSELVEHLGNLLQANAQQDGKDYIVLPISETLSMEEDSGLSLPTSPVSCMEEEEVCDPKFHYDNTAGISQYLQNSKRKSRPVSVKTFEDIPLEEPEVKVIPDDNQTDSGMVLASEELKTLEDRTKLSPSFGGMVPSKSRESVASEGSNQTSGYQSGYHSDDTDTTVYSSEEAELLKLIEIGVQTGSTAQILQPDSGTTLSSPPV
# Epidermal growth factor receptor (Homo sapiens), sequence (P00533 whole entry): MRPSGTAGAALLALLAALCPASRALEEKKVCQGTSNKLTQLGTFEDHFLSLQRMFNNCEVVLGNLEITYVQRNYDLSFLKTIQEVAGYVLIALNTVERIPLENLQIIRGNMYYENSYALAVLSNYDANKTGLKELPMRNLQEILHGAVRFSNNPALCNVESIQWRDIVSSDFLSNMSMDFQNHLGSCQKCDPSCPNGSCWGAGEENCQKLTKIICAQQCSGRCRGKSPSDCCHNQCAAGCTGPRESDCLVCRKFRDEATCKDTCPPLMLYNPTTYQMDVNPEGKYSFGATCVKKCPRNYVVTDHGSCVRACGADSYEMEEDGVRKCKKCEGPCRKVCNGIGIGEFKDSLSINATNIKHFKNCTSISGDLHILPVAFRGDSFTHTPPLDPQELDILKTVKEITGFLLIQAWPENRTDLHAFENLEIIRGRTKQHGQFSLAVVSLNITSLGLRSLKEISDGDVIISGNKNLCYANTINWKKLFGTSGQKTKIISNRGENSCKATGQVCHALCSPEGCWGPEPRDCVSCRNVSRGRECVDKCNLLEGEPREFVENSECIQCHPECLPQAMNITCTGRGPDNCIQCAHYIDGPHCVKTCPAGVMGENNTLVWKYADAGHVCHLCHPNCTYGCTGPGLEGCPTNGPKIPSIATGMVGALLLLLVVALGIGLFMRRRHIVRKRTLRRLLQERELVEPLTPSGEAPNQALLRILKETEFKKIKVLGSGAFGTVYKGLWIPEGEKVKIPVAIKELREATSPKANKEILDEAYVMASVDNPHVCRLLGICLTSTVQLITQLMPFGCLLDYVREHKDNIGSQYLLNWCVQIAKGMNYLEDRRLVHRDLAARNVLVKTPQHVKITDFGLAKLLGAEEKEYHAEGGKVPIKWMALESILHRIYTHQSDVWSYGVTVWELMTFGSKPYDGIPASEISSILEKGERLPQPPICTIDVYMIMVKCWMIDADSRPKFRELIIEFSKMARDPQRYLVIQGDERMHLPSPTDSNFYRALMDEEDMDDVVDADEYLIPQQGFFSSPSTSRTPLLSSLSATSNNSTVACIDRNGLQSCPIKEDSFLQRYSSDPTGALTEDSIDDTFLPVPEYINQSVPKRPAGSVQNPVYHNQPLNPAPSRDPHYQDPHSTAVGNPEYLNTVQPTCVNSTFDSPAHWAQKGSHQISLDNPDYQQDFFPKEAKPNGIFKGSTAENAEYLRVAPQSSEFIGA
# Cyclin-dependent kinase 4, sequence (P11802 whole entry): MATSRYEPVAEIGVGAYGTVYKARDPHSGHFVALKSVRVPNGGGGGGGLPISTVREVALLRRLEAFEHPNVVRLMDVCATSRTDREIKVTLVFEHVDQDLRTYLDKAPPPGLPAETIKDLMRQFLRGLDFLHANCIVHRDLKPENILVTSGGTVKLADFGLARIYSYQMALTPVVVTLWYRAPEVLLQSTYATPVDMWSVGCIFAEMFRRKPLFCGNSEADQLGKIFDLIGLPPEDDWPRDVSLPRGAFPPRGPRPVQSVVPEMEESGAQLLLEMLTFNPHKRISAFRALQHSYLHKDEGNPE
SMILES,IC50 [1] [µM],inhibition [2] [%],IC50 [3] [µM],IC50 (HCT-116) [µM],inhibition [4] [%],IC50 [5] [µM],IC50 [6] [µM],inhibition [7] [%],IC50 [8] [µM]
CN1CCC(c2c(O)cc(O)c3c2O/C(=C\c2ccc([N+](=O)[O-])cc2)C3=O)CC1,2.21,43,0.31,35.6,37,22,4.8,–,–
CN1CCC(c2c(O)cc(O)c3c2O/C(=C\c2ccccc2)C3=O)CC1,4.41,38,1.28,> 50,2,–,4.2,19,0.11
CN1CCC(c2c(O)cc(O)c3c2O/C(=C\c2ccc(N4CCN(C)CC4)cc2)C3=O)CC1,1.92,29,2.98,24.8,25,–,1.75,21,0.8
CN1CCC(c2c(O)cc(O)c3c2O/C(=C\c2ccccc2Cl)C3=O)CC1,25.3,–,3.97,20.1,17,–,10,22,0.6
CN1CCC(c2c(O)cc(O)c3c2O/C(=C\c2ccc(S(N)(=O)=O)cc2)C3=O)CC1,1.87,36,0.03,> 50,25,–,3.7,42,0.009
